Laboratory results reported in patent publication US10570213B2, “Methods of treating cancers using PD-1 axis binding antagonists and taxanes” (Genentech, Inc., priority 2013, dated 2020).

System: MC38 colorectal tumor
Test: syngeneic MC38 colorectal tumor model in C57BL/6 mice
Format: in vivo
Conditions: FIG. 1 experiment
Method: Mice with established subcutaneous MC38 tumors of approximately 100-200 mm^3 were treated with single-dose carboplatin at 80 mg/kg by intraperitoneal (IP) injection plus paclitaxel at 10 mg/kg injected intravenously (IV), and anti-gp120 antibody or anti-PD-L1 (clone 25A1 mIgG2a.DANA) at 10 mg/kg dosed 3 times a week for 3 weeks. N=10 mice/group.
Mice with established subcutaneous MC38 tumors of approximately 100-200 mm^3 were treated with a single dose of either saline or dexamethasone at 4 mg/kg IV and 12 hours later, treated with either control anti-gp120 antibody or anti-PD-L1 (clone 25A1.mIgG2a.DANA) at 10 mg/kg IP 3 times a week for 3 weeks. N=10 mice/group.
Mice with established subcutaneous MC38 tumors of approximately 300 mm^3 were treated with anti-gp120 control antibody or anti-PD-L1 antibody (clone YW243.55.570 mIgG2a.DANA) administered by IP injection at 10 mg/kg 3 times a week for 3 weeks, plus saline or carboplatin at 75 mg/kg IP weekly for 3 weeks plus ABRAXANE® at 15 mg/kg iv weekly for 3 weeks, as indicated. N=8 mice/group.
MC38 colorectal tumor cell lines were maintained at Genentech. 7-10 week old C57BL/6 female mice (Charles River Laboratories; Hollister, Calif.) were inoculated subcutaneously in the right unilateral flank with 0.1 million MC38 cells. […]

paclitaxel+carboplatin
mice with partial response (in words) (N=10 mice/group): no mice
time to progression (TTP), 5× the initial tumor volume (tumors approximately 100-200 mm^3 at start, anti-PD-L1 clone 25A1): 15.5 days
